Laboratory results taken from PubChem BioAssay (NCI).
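Briefly, cells in 96-well plates were exposed to five compound concentrations for 48 h, and endpoints were estimated by linear interpolation. GI50 = concentration required for 50% inhibition of growth. At the TGI there is no net growth.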

Tests used:
Experiment in all cases: inhibition of tumour cell growth, NCI panel, 48 h
[1] = test system: TK-10 renal
[2] = test system: HCT-15 colon
[3] = test system: HOP-62 NSCLC
[4] = test system: NCI-H23 lung
[5] = test system: DU-145 prostate
[6] = test system: UACC-62 melanoma
[7] = test system: SK-MEL-28 melanoma
[8] = test system: KM12 colon
[9] = test system: U251 CNS
[10] = test system: PC-3 prostate
[11] = test system: SK-MEL-2 melanoma
[12] = test system: NCI-H522 lung
[13] = test system: HCT-116 colon
[14] = test system: ACHN renal
[15] = test system: OVCAR-5 ovarian
[16] = test system: HOP-92 NSCLC
[17] = test system: CAKI-1 renal
[18] = test system: HT29 colon
[19] = test system: SK-MEL-5 melanoma
[20] = test system: T-47D breast
[21] = test system: UO-31 renal
[22] = test system: 786-0 renal
[23] = test system: EKVX NSCLC
[24] = test system: SNB-75 CNS
[25] = test system: OVCAR-3 ovarian
[26] = test system: SF-539 CNS
[27] = test system: SK-OV-3 ovarian
[28] = test system: NCI/ADR-RES ovarian
[29] = test system: UACC-257 melanoma
[30] = test system: A549 NSCLC
[31] = test system: K-562 leukemia
[32] = test system: MDA-MB-435
[33] = test system: MDA-MB-231 breast
[34] = test system: IGROV1 ovarian
[35] = test system: A498 renal
[36] = test system: HS 578T breast
[37] = test system: SF-268 CNS
[38] = test system: MCF7 breast
[39] = test system: BT-549 breast
[40] = test system: CCRF-CEM leukemia
[41] = test system: SR leukemia
[42] = test system: SW-620 colon
[43] = test system: SF-295 CNS
[44] = test system: HCC-2998 colon
[45] = test system: HL-60(TB) leukemia
[46] = test system: LOX IMVI melanoma
[47] = test system: NCI-H460 lung
[48] = test system: M14 melanoma
[49] = test system: NCI-H226 lung
[50] = test system: MALME-3M melanoma
[51] = test system: MOLT-4 leukemia
[52] = test system: SN12C renal
[53] = test system: OVCAR-8 ovarian
[54] = test system: OVCAR-4 ovarian
[55] = test system: SNB-19 CNS
[56] = test system: RPMI-8226 leukemia
[57] = test system: COLO 205 colon
[58] = test system: RXF 393 renal

CCC[n+]1cc2cc3c(cc2c2c1-c1cc4c(cc1C2)OCO4)OCO3 (tested in a mixture with another compound)
GI50 [1]: 4.11 µM
TGI [1]: 38.6 µM
GI50 [2]: 28.2 µM
TGI [2]: > 100 µM
GI50 [3]: 546 nM
TGI [3]: 6.53 µM
GI50 [4]: 679 nM
TGI [4]: 3.02 µM
GI50 [5]: 1270 nM
TGI [5]: 7.73 µM
GI50 [6]: 465 nM
TGI [6]: 1.7 µM
GI50 [7]: 783 nM
TGI [7]: 2.49 µM
GI50 [8]: 374 nM
TGI [8]: 5.33 µM
GI50 [9]: 229 nM
TGI [9]: 3.32 µM
GI50 [10]: 986 nM
TGI [10]: 7.16 µM
GI50 [11]: 530 nM
TGI [11]: 2350 nM
TGI [12]: 2080 nM
GI50 [13]: 758 nM
TGI [13]: 11.3 µM
GI50 [14]: 12.1 µM
TGI [14]: 51.3 µM
GI50 [15]: 8.85 µM
TGI [15]: 29 µM
GI50 [16]: 683 nM
TGI [16]: 4.07 µM
GI50 [17]: 25.8 µM
TGI [17]: > 91.8 µM
GI50 [18]: 1410 nM
TGI [18]: 16.6 µM
GI50 [19]: 371 nM
TGI [19]: 1.6 µM
GI50 [20]: 267 nM
TGI [20]: 1610 nM
GI50 [21]: 3.14 µM
TGI [21]: 33.8 µM
GI50 [22]: 460 nM
TGI [22]: 10 µM
GI50 [23]: 2180 nM
TGI [23]: 19.2 µM
GI50 [24]: 403 nM
TGI [24]: 1380 nM
GI50 [25]: 894 nM
TGI [25]: 4.81 µM
GI50 [26]: 425 nM
TGI [26]: 2.88 µM
GI50 [27]: 3.57 µM
TGI [27]: 16.4 µM
GI50 [28]: > 85.5 µM
TGI [28]: > 100 µM
GI50 [29]: 706 nM
TGI [29]: 3.16 µM
GI50 [30]: 2770 nM
TGI [30]: > 52.4 µM
GI50 [31]: 581 nM
TGI [31]: > 35 µM
GI50 [32]: 785 nM
TGI [32]: 2290 nM
GI50 [33]: 2390 nM
TGI [33]: 12.1 µM
TGI [34]: 7.81 µM
GI50 [35]: 11.2 µM
TGI [35]: 25.7 µM
GI50 [36]: 437 nM
TGI [36]: 3.53 µM
GI50 [37]: 64.9 nM
TGI [37]: 1950 nM
GI50 [38]: 468 nM
TGI [38]: 6.34 µM
GI50 [39]: 312 nM
TGI [39]: 1820 nM
GI50 [40]: 2380 nM
TGI [40]: 15 µM
GI50 [41]: 287 nM
TGI [41]: 1.75 µM
GI50 [42]: 733 nM
TGI [42]: 12.8 µM
GI50 [43]: 470 nM
TGI [43]: 6.37 µM
GI50 [44]: 504 nM
TGI [44]: 2.14 µM
GI50 [45]: 2980 nM
TGI [45]: 14.8 µM
GI50 [46]: 3.22 µM
TGI [46]: 14.3 µM
GI50 [47]: 337 nM
TGI [47]: 4.39 µM
GI50 [48]: 2490 nM
TGI [48]: 7.81 µM
GI50 [49]: 719 nM
TGI [49]: 7.96 µM
GI50 [50]: 290 nM
TGI [50]: 1.53 µM
GI50 [51]: 251 nM
TGI [51]: 3.03 µM
GI50 [52]: 66.4 nM
TGI [52]: 777 nM
GI50 [53]: 575 nM
TGI [53]: 12.2 µM
GI50 [54]: 853 nM
TGI [54]: 5.9 µM
GI50 [55]: 269 nM
TGI [55]: 2180 nM
GI50 [56]: 545 nM
TGI [56]: 5.5 µM
GI50 [57]: 490 nM
TGI [57]: 3.79 µM

COc1ccc(C[C@@H](C(=O)O[C@H](C)[C@H](NC(=O)[C@@H](CC(C)C)N(C)C(=O)C2CCCN2C(=O)[C@H](C)O)C(=O)N2CCCCNC(=O)[C@@H](C)C(=O)[C@H](C(C)C)OC(=O)C[C@H](O)[C@H]2CC(C)C)N(C)C(C)=O)cc1 (some centres undefined)
TGI [1]: > 50 µM
TGI [2]: > 50 µM
TGI [3]: > 50 µM
TGI [4]: 42.5 µM
TGI [5]: > 50 µM
TGI [6]: 22 µM
TGI [7]: 22.6 µM
TGI [8]: 31.6 µM
TGI [9]: 21.8 µM
TGI [10]: > 50 µM
TGI [11]: > 50000 nM
TGI [12]: > 50000 nM
TGI [13]: > 50 µM
TGI [14]: > 50 µM
TGI [15]: > 50 µM
TGI [16]: > 50 µM
TGI [17]: 41.6 µM
TGI [18]: 25.4 µM
TGI [19]: 34.1 µM
TGI [20]: > 50000 nM
TGI [21]: > 50 µM
TGI [22]: > 50 µM
TGI [23]: 37.1 µM
TGI [24]: > 50000 nM
TGI [25]: > 50 µM
TGI [26]: 17.1 µM
TGI [27]: > 50 µM
TGI [28]: > 50 µM
TGI [29]: > 50 µM
TGI [30]: > 50 µM
TGI [31]: 39.7 µM
TGI [32]: > 50000 nM
TGI [33]: 34.2 µM
TGI [34]: > 50 µM
TGI [35]: 43.6 µM
TGI [36]: 34.8 µM
TGI [37]: > 50000 nM
TGI [38]: > 50 µM
TGI [39]: > 50000 nM
TGI [40]: 26.1 µM
TGI [41]: 25 µM
TGI [42]: 28.4 µM
TGI [43]: > 50 µM
TGI [44]: 23 µM
TGI [45]: 25.2 µM
TGI [47]: 45.2 µM
TGI [48]: > 50 µM
TGI [49]: 49.5 µM
TGI [50]: 49.1 µM
TGI [51]: 35.2 µM
TGI [52]: > 50000 nM
TGI [53]: > 50 µM
TGI [54]: > 50 µM
TGI [58]: 20.6 µM
TGI [55]: > 50000 nM
TGI [56]: 26.8 µM
TGI [57]: 14.8 µM
